Key:
Assay in all cases: relative viability (nuclei count vs DMSO), 5 days (fraction); higher = more cells survive
[1] = compound: OCc1c[nH]c2ccccc12 [Indole-3-carbinol] + C[C@]1(O)C[C@@H](c2nc(-c3ccc4ccc(-c5ccccc5)nc4c3)c3c(N)nccn32)C1 [Linsitinib] (partner 1 µM)
In short: (§1)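 Nuclei were stained with Hoechst during a one-step fixation (final 0.05% Triton X-100, 1% formaldehyde, 1 ug/ml Hoechst) carried out 5 days after dosing, then counted on 4× images. The cells, lung cancer lines in 1536-well plates, had been dosed by pin tool the day after seeding with one drug alone or a fixed anchor-drug dose plus five library-drug doses (not always all listed) in √10 steps. Relative viability is the nuclei count in treated wells divided by that in vehicle wells, and each value is the median of duplicate plates.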

[2] = compound: OCc1c[nH]c2ccccc12 [Indole-3-carbinol] + C[C@@H](Oc1cc(-c2cnn(C3CCNCC3)c2)cnc1N)c1c(Cl)ccc(F)c1Cl [Crizotinib] (partner 1 µM)
In short: as §1

[3] = compound: OCc1c[nH]c2ccccc12 [Indole-3-carbinol] + COc1cc2c(Oc3ccc(NC(=O)C4(C(=O)Nc5ccc(F)cc5)CC4)cc3F)ccnc2cc1OCCCN1CCOCC1 [Foretinib] (partner 0.25 µM)
In short: as §1

[4] = compound: OCc1c[nH]c2ccccc12 [Indole-3-carbinol] + Cc1nc(NC(=O)N2CCC[C@H]2C(N)=O)sc1-c1ccnc(C(C)(C)C(F)(F)F)c1 [Alpelisib] (partner 2 µM)
In short: as §1

[5] = compound: OCc1c[nH]c2ccccc12 [Indole-3-carbinol] + CS(=O)(=O)N1CCN(Cc2cc3nc(-c4cccc5[nH]ncc45)nc(N4CCOCC4)c3s2)CC1 [Pictilisib] (partner 1 µM)
In short: as §1

[6] = compound: OCc1c[nH]c2ccccc12 [Indole-3-carbinol] + CC(C)C[C@H](NC(=O)[C@H](Cc1ccccc1)NC(=O)c1cnccn1)B(O)O [Bortezomib] (partner 0.002 µM)
In short: as §1

[7] = compound: OCc1c[nH]c2ccccc12 [Indole-3-carbinol] + CC1(C)CCC(c2ccc(Cl)cc2)=C(CN2CCN(c3ccc(C(=O)NS(=O)(=O)c4ccc(N[C@H](CCN5CCOCC5)CSc5ccccc5)c(S(=O)(=O)C(F)(F)F)c4)cc3)CC2)C1 [Navitoclax] (partner 0.5 µM)
In short: as §1

[8] = compound: OCc1c[nH]c2ccccc12 [Indole-3-carbinol] + NC(=O)Nc1cc(-c2cccc(F)c2)sc1C(=O)N[C@H]1CCCNC1 [AZD7762] (partner 0.2 µM)
In short: as §1

[9] = compound: OCc1c[nH]c2ccccc12 [Indole-3-carbinol] + CS(=O)(=O)CCNCc1ccc(-c2ccc3ncnc(Nc4ccc(OCc5cccc(F)c5)c(Cl)c4)c3c2)o1 [Lapatinib] (partner 2 µM)
In short: as §1

[10] = compound: OCc1c[nH]c2ccccc12 [Indole-3-carbinol] + O=C(c1cc(Cc2n[nH]c(=O)c3ccccc23)ccc1F)N1CCN(C(=O)C2CC2)CC1 [Olaparib] (partner 8 µM)
In short: as §1

Indole-3-carbinol = compound: OCc1c[nH]c2ccccc12 [Indole-3-carbinol]
In short: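 For viability, nuclei in each treated well were divided by nuclei in vehicle wells and the median across plates was taken. Lung cancer cell lines in 1536-well plates were pinned with five library-drug doses (not always all listed) spaced by √10, cultured 5 days without medium change, and imaged at 4× after Hoechst staining, with plates passing only at control CV below 25% and at least one doubling.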

[11] = compound: OCc1c[nH]c2ccccc12 [Indole-3-carbinol] + Cc1nc(Nc2ncc(C(=O)Nc3c(C)cccc3Cl)s2)cc(N2CCN(CCO)CC2)n1 [Dasatinib] (partner 0.075 µM)
In short: as §1

[12] = compound: OCc1c[nH]c2ccccc12 [Indole-3-carbinol] + Nc1nc2[nH]cc(CCc3ccc(C(=O)N[C@@H](CCC(=O)O)C(=O)O)cc3)c2c(=O)[nH]1 [Pemetrexed] (partner 0.2 µM)
In short: as §1

[13] = compound: OCc1c[nH]c2ccccc12 [Indole-3-carbinol] + CC(=O)Nc1cccc(-n2c(=O)n(C3CC3)c(=O)c3c(Nc4ccc(I)cc4F)n(C)c(=O)c(C)c32)c1 [Trametinib] (partner 0.02 µM)
In short: as §1

[14] = compound: OCc1c[nH]c2ccccc12 [Indole-3-carbinol] + O=C(CCCCCCC(=O)Nc1ccccc1)NO [Vorinostat] (partner 1 µM)
In short: as §1

[15] = compound: OCc1c[nH]c2ccccc12 [Indole-3-carbinol] + CCNC(=O)c1noc(-c2cc(C(C)C)c(O)cc2O)c1-c1ccc(CN2CCOCC2)cc1 [Luminespib] (partner 0.01 µM)
In short: as §1

[16] = compound: OCc1c[nH]c2ccccc12 [Indole-3-carbinol] + Cc1cc(Nc2cc(N3CCN(C)CC3)nc(Sc3ccc(NC(=O)C4CC4)cc3)n2)n[nH]1 [Tozasertib] (partner 0.1 µM)
In short: as §1

[17] = compound: OCc1c[nH]c2ccccc12 [Indole-3-carbinol] + Nc1ncn([C@H]2C[C@H](O)[C@@H](CO)O2)c(=O)n1 [Decitabine] (partner 2 µM)
In short: as §1

[18] = compound: OCc1c[nH]c2ccccc12 [Indole-3-carbinol] + COc1cccc2cc(-c3nc([C@H]4CC[C@H](C(=O)O)CC4)n4ncnc(N)c34)[nH]c12 [OSI-027] (partner 0.5 µM)
In short: as §1

[19] = compound: OCc1c[nH]c2ccccc12 [Indole-3-carbinol] + N=C(N)NC(=N)NCCc1ccccc1 [Phenformin] (partner 250 µM)
In short: as §1

[20] = compound: OCc1c[nH]c2ccccc12 [Indole-3-carbinol] + CC(=O)c1c(C)c2cnc(Nc3ccc(N4CCNCC4)cn3)nc2n(C2CCCC2)c1=O [Palbociclib] (partner 0.5 µM)
In short: as §1

NCI-H1703 gave a relative viability ([1]; first compound 0.253 µM) of 0.786, a relative viability ([1]; first compound 0.8 µM) of 0.413 and a relative viability ([1]; first compound 2.53 µM) of 0.665. The relative viability ([1]; first compound 8 µM) was 0.636, the relative viability ([2]; first compound 0.253 µM) was 0.835 and the relative viability ([2]; first compound 0.8 µM) was 0.853. It also gave a relative viability ([2]; first compound 2.53 µM) of 0.991, a relative viability ([2]; first compound 8 µM) of 0.661 and a relative viability ([3]; first compound 0.253 µM) of 0.342. For the same cell line, the relative viability ([3]; first compound 0.8 µM) was 0.376, the relative viability ([3]; first compound 2.53 µM) was 0.309 and the relative viability ([3]; first compound 8 µM) was 0.326. The relative viability ([4]; first compound 0.253 µM) was 0.3, the relative viability ([4]; first compound 0.8 µM) was 0.4 and the relative viability ([4]; first compound 2.53 µM) was 0.322. For the same cell line, the relative viability ([4]; first compound 8 µM) was 0.332, the relative viability ([5]; first compound 0.8 µM) was 0.24 and the relative viability ([5]; first compound 2.53 µM) was 0.26. For the same cell line, the relative viability ([5]; first compound 8 µM) was 0.253, the relative viability ([6]; first compound 0.253 µM) was 0.274 and the relative viability ([6]; first compound 0.8 µM) was 0.389. The relative viability ([6]; first compound 2.53 µM) was 0.358, the relative viability ([6]; first compound 8 µM) was 0.453 and the relative viability ([7]; first compound 0.253 µM) was 1.01. The relative viability ([7]; first compound 0.8 µM) was 1.48, the relative viability ([7]; first compound 2.53 µM) was 1.47 and the relative viability ([7]; first compound 8 µM) was 1.18. The relative viability ([8]; first compound 0.253 µM) was 0.155, the relative viability ([8]; first compound 2.53 µM) was 0.113 and the relative viability ([8]; first compound 8 µM) was 0.103. The relative viability ([9]; first compound 0.253 µM) was 1.25, the relative viability ([9]; first compound 0.8 µM) was 1.36 and the relative viability ([9]; first compound 2.53 µM) was 0.945. It also gave a relative viability ([9]; first compound 8 µM) of 0.903, a relative viability ([10]; first compound 0.253 µM) of 0.389 and a relative viability ([10]; first compound 0.8 µM) of 0.557. It also gave a relative viability ([10]; first compound 2.53 µM) of 0.389, a relative viability ([10]; first compound 8 µM) of 0.553 and a relative viability (Indole-3-carbinol; 0.253 µM) of 0.962. The relative viability (Indole-3-carbinol; 0.8 µM) was 0.908, the relative viability (Indole-3-carbinol; 2.53 µM) was 1.05 and the relative viability (Indole-3-carbinol; 8 µM) was 0.904.
NCI-H2342 was tested, and the relative viability ([11]; first compound 0.253 µM) was 0.355, the relative viability ([11]; first compound 0.8 µM) was 0.323 and the relative viability ([11]; first compound 2.53 µM) was 0.317. For the same cell line, the relative viability ([11]; first compound 8 µM) was 0.285, the relative viability ([12]; first compound 0.253 µM) was 0.757 and the relative viability ([12]; first compound 0.8 µM) was 0.738. It also gave a relative viability ([12]; first compound 2.53 µM) of 0.751, a relative viability ([12]; first compound 8 µM) of 0.742 and a relative viability ([13]; first compound 0.253 µM) of 0.824. The relative viability ([13]; first compound 0.8 µM) was 0.931, the relative viability ([13]; first compound 2.53 µM) was 0.866 and the relative viability ([13]; first compound 8 µM) was 0.764. It also gave a relative viability ([3]; first compound 0.253 µM) of 1.12, a relative viability ([3]; first compound 0.8 µM) of 1.04 and a relative viability ([3]; first compound 2.53 µM) of 1.06. The relative viability ([3]; first compound 8 µM) was 0.999, the relative viability ([14]; first compound 0.253 µM) was 0.802 and the relative viability ([14]; first compound 0.8 µM) was 0.743. It also gave a relative viability ([14]; first compound 2.53 µM) of 0.903, a relative viability ([14]; first compound 8 µM) of 0.712 and a relative viability ([15]; first compound 0.253 µM) of 0.867. For the same cell line, the relative viability ([15]; first compound 0.8 µM) was 0.759, the relative viability ([15]; first compound 2.53 µM) was 0.752 and the relative viability ([15]; first compound 8 µM) was 0.74. It also gave a relative viability ([8]; first compound 0.253 µM) of 0.576, a relative viability ([8]; first compound 0.8 µM) of 0.455 and a relative viability ([8]; first compound 2.53 µM) of 0.456. The relative viability ([8]; first compound 8 µM) was 0.453, the relative viability ([16]; first compound 0.253 µM) was 0.516 and the relative viability ([16]; first compound 0.8 µM) was 0.575. The relative viability ([16]; first compound 2.53 µM) was 0.453, the relative viability ([16]; first compound 8 µM) was 0.405 and the relative viability ([17]; first compound 0.253 µM) was 0.822. The relative viability ([17]; first compound 0.8 µM) was 0.743, the relative viability ([17]; first compound 2.53 µM) was 0.765 and the relative viability ([17]; first compound 8 µM) was 0.765. For the same cell line, the relative viability ([18]; first compound 0.253 µM) was 0.605, the relative viability ([18]; first compound 0.8 µM) was 0.585 and the relative viability ([18]; first compound 2.53 µM) was 0.569. For the same cell line, the relative viability ([18]; first compound 8 µM) was 0.572, the relative viability ([19]; first compound 0.253 µM) was 0.617 and the relative viability ([19]; first compound 0.8 µM) was 0.608. It also gave a relative viability ([19]; first compound 2.53 µM) of 0.572, a relative viability ([19]; first compound 8 µM) of 0.516 and a relative viability ([20]; first compound 0.253 µM) of 0.516. The relative viability ([20]; first compound 0.8 µM) was 0.516, the relative viability ([20]; first compound 2.53 µM) was 0.498 and the relative viability ([20]; first compound 8 µM) was 0.535. It also gave a relative viability ([10]; first compound 0.253 µM) of 0.452, a relative viability ([10]; first compound 0.8 µM) of 0.447 and a relative viability ([10]; first compound 2.53 µM) of 0.508. It also gave a relative viability ([10]; first compound 8 µM) of 0.512, a relative viability (Indole-3-carbinol; 0.253 µM) of 1.08 and a relative viability (Indole-3-carbinol; 0.8 µM) of 0.907. The relative viability (Indole-3-carbinol; 2.53 µM) was 1.01 and the relative viability (Indole-3-carbinol; 8 µM) was 1.02.
